In data set [1] the test system is feruloyl-CoA:monolignol transferase (FMT). Briefly: Feruloyl-CoA:monolignol transferase (FMT) enzymatic assay, substrate test with UPLC detection of product. The format is biochemical, Angelica sinensis. The following applies: purified recombinant FMT; for product formed from CoA thioester as acyl donor: coniferyl alcohol as acyl acceptor (FIGS. 2, 6, 7); for FMT activity with monolignol as acyl acceptor: feruloyl-CoA as acyl donor (FIGS. 2, 4, 5). The method, then:
The feruloyl-CoA, p-coumaroyl-CoA, and caffeoyl-CoA substrates used in the FMT assay were enzymatically synthesized using the tobacco 4-coumarate-CoA-ligase (4CL) with a c-terminal HIS tag in pCRT7/CT TOPO, provided by Eran Pichersky. Following a method modified from Beuerle and Pichersky (Anal. Biochem. 302(2): 305-12 (2001)) 3.3 mg of ferulic acid, coumaric acid or caffeic acid, 2 mg coenzyme A, and 6.9 mg ATP were added to 50 mM Tris-hydrochloride pH 8 and 2.5 mM magnesium chloride in a final volume of 10 ml. The reaction was started by adding 0.25 mg 4CL, protein purified as described by the method of Beurerle and Pichershy. After a five-hour incubation at room temperature, additional 6.9 mg ATP, 2 mg coenzyme A, and 0.25 mg purified 4CL were added and the reaction was incubated overnight. The CoA esters were purified on an SPE cartridge as described in Beuerle and Pichersky (2001).
(§1) The FMT activity assay contained 100 mM MOPS pH 6.8, 1 mM dithiothreitol (DTT), 1 mM feruloyl-CoA, 1 mM coniferyl alcohol, 3.9 μg of purified FMT protein and deionized water to a volume of 50 μL. After a 30-minute incubation, 1 μL of 10 M hydrochloric acid was added to stop the reaction. Because the product synthesized in the reaction, coniferyl ferulate (CAFA), is insoluble, 50 μL of methanol was added to solubilize the CAFA. Prior to UPLC, protein and insoluble material were removed by filtering through an Amicon Ultracel 10K membrane filter (Millipore). The flow-through was analyzed using an Acquity Ultra Performance LC with an Acquity UPLC BEH C18 1.7 μm 2.1×100 mm column and the Acquity Console and Empower 2 Software, all from Waters Corporation. The solvents used in this method were solvent A, 0.1% trifluoroacetic acid, and solvent B, 100% acetonitrile. Samples were analyzed using the following gradient conditions, 13% B, for 5 minutes, 1 minute linear gradient to 42% B, held for 4 minutes, 1 minute linear gradient to 100% B, held for 1 minutes and 3 minutes at 13% B with a flow rate of 0.3 ml/minute. This method was then used to analyze a 10 μL injection of each assay reaction; standards for each of the substrates along with chemically synthesized CAFA were used to determine retention times for each compound.
Purified recombinant enzyme was assayed for FMT activity using a reaction mixture containing 2 mM coniferyl alcohol, […], 100 mM HEPES pH 7.4 and 1 mM DTT. The second most abundant BAHD acyltransferase gene when incubated with Coniferyl alcohol and feruloyl-CoA produced a compound with the retention time of authentic coniferyl ferulate (CAFA) (FIG. 2). […] The addition of methanol to 50% after stopping the enzyme with acid was required to analyze the product by UPLC. The insolubility of the product made partial purification easy as the product was separated from the substrates by centrifugation.
This partial purified product was analyzed by NMR. The identity of the product as CAFA was confirmed by ^1H-NMR (FIG. 3). The enzyme was tested with p-coumaryl alcohol (FIG. 4) and sinapyl alcohol (FIG. 5) in addition to coniferyl alcohol (FIG. 2). The enzyme is active with all three monolignols, i.e., p-coumaryl alcohol, coniferyl alcohol and sinapyl alcohol. The enzyme was tested with p-coumaroyl-CoA (FIG. 6) and caffeoyl-CoA (FIG. 7) as well as feruloyl-CoA (FIG. 2).

The nature of data set [2]: Solubility of the enzyme product in the aqueous assay mixture. The format is physicochemical. The settings on record: FMT reaction product; methanol to 50% needed to solubilize. How it is done: as §1, with “compound. […]” for “compound.”

In the case of `CC(C)(COP(=O)(O)OP(=O)(O)OC[C@H]1O[C@@H](n2cnc3c(N)ncnc32)[C@H](O)[C@@H]1OP(=O)(O)O)[C@@H](O)C(=O)NCCC(=O)NCCSC(=O)/C=C/c1ccc(O)cc1` [p-coumaroyl-CoA], the “product formed from CoA thioester as acyl donor” value in data set [1] was “very little product”.
On the same count and under the same terms, to `CC(C)(COP(=O)(O)OP(=O)(O)OC[C@H]1O[C@@H](n2cnc3c(N)ncnc32)[C@H](O)[C@@H]1OP(=O)(O)O)[C@@H](O)C(=O)NCCC(=O)NCCSC(=O)/C=C/c1ccc(O)c(O)c1` [caffeoyl-CoA] belongs “very little product”.
Still for that read-out and setting: to `COc1cc(/C=C/C(=O)SCCNC(=O)CCNC(=O)[C@H](O)C(C)(C)COP(=O)(O)OP(=O)(O)OC[C@H]2O[C@@H](n3cnc4c(N)ncnc43)[C@H](O)[C@@H]2OP(=O)(O)O)ccc1O` [feruloyl-CoA] belongs “substantial product”.
Take `OC/C=C/c1ccc(O)cc1` [p-coumaryl alcohol]: the “FMT activity with monolignol as acyl acceptor” value (“FMT activity with monolignol” for short) in data set [1] is reported as “active”.
`COc1cc(/C=C/CO)cc(OC)c1O` [sinapyl alcohol]: the “FMT activity with monolignol” value in data set [1] was “active”.
In the case of `COc1cc(/C=C/COC(=O)/C=C/c2ccc(O)c(OC)c2)ccc1O` [coniferyl ferulate], the solubility in water entry in data set [2] is “mostly insoluble in water”.
Turning to `COc1cc(/C=C/CO)ccc1O` [coniferyl alcohol], the “FMT activity with monolignol” value in data set [1] is on record as “active”.

The values are drawn from patent US9487794B2, “Feruloyl-CoA:monolignol transferase” (Board of Trustees of Michigan State University, priority 2010, dated 2016).
